Laboratory results taken from PMC8909834, “An Orally Bioavailable and Highly Efficacious Inhibitor of CDK9/FLT3 for the Treatment of Acute Myeloid Leukemia” (Cancers, 2022).

Columns and labels:
Assay in all cases: Kinase Hotspot radiolabel assay
Type in all cases: biochemical
Conditions in all cases: read-out: % Residual Activity
[1] = target: T1, HIPK2 (Homo sapiens, UniProt Q9H2X6)
T1 construct: purchased Reaction Biology Corporation (Kinase HotSpot)
Summary of the method: (§1)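 Step one: screen at 1 µM across 369 kinases (Hotspot, radiolabel detection). Step two: Ki determination for kinases with >90% inhibition.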

[2] = target: T2, SSTK/TSSK6 (Homo sapiens, UniProt Q9BXA6)
T2 construct: purchased Reaction Biology Corporation (Kinase HotSpot)
Summary of the method: as §1

[3] = target: T3, BMX/ETK (Homo sapiens, UniProt P51813)
T3 construct: purchased Reaction Biology Corporation (Kinase HotSpot)
Summary of the method: as §1

[4] = target: T4, ALK (Homo sapiens, UniProt Q9UM73)
T4 construct: purchased Reaction Biology Corporation (Kinase HotSpot)
Summary of the method: as §1

[5] = target: T5, CK1g2 (Homo sapiens, UniProt P78368)
T5 construct: purchased Reaction Biology Corporation (Kinase HotSpot)
Summary of the method: as §1

[6] = target: T6, CDK2/cyclin E (Homo sapiens, UniProt P24941)
T6 construct: purchased Reaction Biology Corporation (Kinase HotSpot)
Summary of the method: as §1

[7] = target: T7, PIM1 (Homo sapiens, UniProt P11309)
T7 construct: purchased Reaction Biology Corporation (Kinase HotSpot)
Summary of the method: as §1

[8] = target: T8, ERK5/MAPK7 (Homo sapiens, UniProt Q13164)
T8 construct: purchased Reaction Biology Corporation (Kinase HotSpot)
Summary of the method: as §1

[9] = target: T9, P38d/MAPK13 (Homo sapiens, UniProt O15264)
T9 construct: purchased Reaction Biology Corporation (Kinase HotSpot)
Summary of the method: as §1

[10] = target: T10, DLK/MAP3K12 (Homo sapiens, UniProt Q12852)
T10 construct: purchased Reaction Biology Corporation (Kinase HotSpot)
Summary of the method: as §1

[11] = target: T11, TSSK3/STK22C (Homo sapiens, UniProt Q96PN8)
T11 construct: purchased Reaction Biology Corporation (Kinase HotSpot)
Summary of the method: as §1

[12] = target: T12, AXL (Homo sapiens, UniProt P30530)
T12 construct: purchased Reaction Biology Corporation (Kinase HotSpot)
Summary of the method: as §1

[13] = target: T13, c-MET (Homo sapiens, UniProt P08581)
T13 construct: purchased Reaction Biology Corporation (Kinase HotSpot)
Summary of the method: as §1

[14] = target: T14, DYRK1/DYRK1A (Homo sapiens, UniProt Q13627)
T14 construct: purchased Reaction Biology Corporation (Kinase HotSpot)
Summary of the method: as §1

[15] = target: T15, SRMS (Homo sapiens, UniProt Q9H3Y6)
T15 construct: purchased Reaction Biology Corporation (Kinase HotSpot)
Summary of the method: as §1

[16] = target: T16, STK38L/NDR2 (Homo sapiens, UniProt Q9Y2H1)
T16 construct: purchased Reaction Biology Corporation (Kinase HotSpot)
Summary of the method: as §1

[17] = target: T17, SRPK1 (Homo sapiens, UniProt Q96SB4)
T17 construct: purchased Reaction Biology Corporation (Kinase HotSpot)
Summary of the method: as §1

[18] = target: T18, PKN3/PRK3 (Homo sapiens, UniProt Q6P5Z2)
T18 construct: purchased Reaction Biology Corporation (Kinase HotSpot)
Summary of the method: as §1

[19] = target: T19, ZIPK/DAPK3 (Homo sapiens, UniProt O43293)
T19 construct: purchased Reaction Biology Corporation (Kinase HotSpot)
Summary of the method: as §1

[20] = target: T20, PAK2 (Homo sapiens, UniProt Q13177)
T20 construct: purchased Reaction Biology Corporation (Kinase HotSpot)
Summary of the method: as §1

[21] = target: T21, SRPK2 (Homo sapiens, UniProt P78362)
T21 construct: purchased Reaction Biology Corporation (Kinase HotSpot)
Summary of the method: as §1

[22] = target: T22, LCK2/ICK (Homo sapiens, UniProt Q9UPZ9)
T22 construct: purchased Reaction Biology Corporation (Kinase HotSpot)
Summary of the method: as §1

[23] = target: T23, AKT2 (Homo sapiens, UniProt P31751)
T23 construct: purchased Reaction Biology Corporation (Kinase HotSpot)
Summary of the method: as §1

[24] = target: T24, EPHA8 (Homo sapiens, UniProt P29322)
T24 construct: purchased Reaction Biology Corporation (Kinase HotSpot)
Summary of the method: as §1

[25] = target: T25, ALK1/ACVRL1 (Homo sapiens, UniProt P37023)
T25 construct: purchased Reaction Biology Corporation (Kinase HotSpot)
Summary of the method: as §1

[26] = target: T26, GRK3 (Homo sapiens, UniProt P35626)
T26 construct: purchased Reaction Biology Corporation (Kinase HotSpot)
Summary of the method: as §1

[27] = target: T27, PKAcg (Homo sapiens, UniProt P22612)
T27 construct: purchased Reaction Biology Corporation (Kinase HotSpot)
Summary of the method: as §1

[28] = target: T28, PKCmu/PRKD1 (Homo sapiens, UniProt Q15139)
T28 construct: purchased Reaction Biology Corporation (Kinase HotSpot)
Summary of the method: as §1

[29] = target: T29, MEK5 (Homo sapiens, UniProt Q13163)
T29 construct: purchased Reaction Biology Corporation (Kinase HotSpot)
Summary of the method: as §1

[30] = target: T30, MAPKAPK3 (Homo sapiens, UniProt Q16644)
T30 construct: purchased Reaction Biology Corporation (Kinase HotSpot)
Summary of the method: as §1

T22 sequence (Q9UPZ9 whole entry): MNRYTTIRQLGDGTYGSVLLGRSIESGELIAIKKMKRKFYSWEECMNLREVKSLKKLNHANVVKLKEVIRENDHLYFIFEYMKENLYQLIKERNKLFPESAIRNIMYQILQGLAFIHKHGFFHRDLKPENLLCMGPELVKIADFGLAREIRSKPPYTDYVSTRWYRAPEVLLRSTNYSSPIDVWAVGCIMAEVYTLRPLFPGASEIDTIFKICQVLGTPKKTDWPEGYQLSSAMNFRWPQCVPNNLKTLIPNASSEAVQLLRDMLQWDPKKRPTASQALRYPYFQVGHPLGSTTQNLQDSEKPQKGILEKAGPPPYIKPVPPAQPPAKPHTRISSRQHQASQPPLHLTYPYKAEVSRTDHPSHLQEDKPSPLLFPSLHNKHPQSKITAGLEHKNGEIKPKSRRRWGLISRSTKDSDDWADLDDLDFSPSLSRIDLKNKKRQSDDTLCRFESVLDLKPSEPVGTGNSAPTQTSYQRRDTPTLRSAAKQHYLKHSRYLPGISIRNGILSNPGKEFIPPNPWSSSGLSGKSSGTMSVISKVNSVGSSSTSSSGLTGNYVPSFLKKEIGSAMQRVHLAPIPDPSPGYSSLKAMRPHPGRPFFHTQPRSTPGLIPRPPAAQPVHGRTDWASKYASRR
T19 sequence (O43293 whole entry): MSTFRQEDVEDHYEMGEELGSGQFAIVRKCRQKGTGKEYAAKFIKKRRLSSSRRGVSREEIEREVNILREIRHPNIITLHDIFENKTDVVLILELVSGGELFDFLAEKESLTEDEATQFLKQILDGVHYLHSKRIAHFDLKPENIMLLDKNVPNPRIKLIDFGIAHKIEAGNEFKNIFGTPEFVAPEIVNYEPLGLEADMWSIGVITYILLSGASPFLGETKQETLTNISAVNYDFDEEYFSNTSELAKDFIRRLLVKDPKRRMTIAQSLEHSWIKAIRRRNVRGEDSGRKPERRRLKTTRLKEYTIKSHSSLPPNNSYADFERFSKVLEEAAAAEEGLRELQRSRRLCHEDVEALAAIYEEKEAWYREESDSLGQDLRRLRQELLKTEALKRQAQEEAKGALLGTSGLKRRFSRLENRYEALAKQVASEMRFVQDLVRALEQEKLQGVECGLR
T9 sequence (O15264 whole entry): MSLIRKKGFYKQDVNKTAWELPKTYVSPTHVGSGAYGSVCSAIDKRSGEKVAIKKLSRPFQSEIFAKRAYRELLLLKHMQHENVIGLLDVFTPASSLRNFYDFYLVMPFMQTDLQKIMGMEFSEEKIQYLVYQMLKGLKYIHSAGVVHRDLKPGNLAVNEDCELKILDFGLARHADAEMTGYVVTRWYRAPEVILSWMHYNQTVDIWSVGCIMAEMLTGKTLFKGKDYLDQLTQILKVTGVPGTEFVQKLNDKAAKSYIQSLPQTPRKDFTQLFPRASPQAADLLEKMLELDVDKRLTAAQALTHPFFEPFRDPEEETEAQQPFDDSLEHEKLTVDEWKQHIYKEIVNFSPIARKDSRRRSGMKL
T23 sequence (P31751 whole entry): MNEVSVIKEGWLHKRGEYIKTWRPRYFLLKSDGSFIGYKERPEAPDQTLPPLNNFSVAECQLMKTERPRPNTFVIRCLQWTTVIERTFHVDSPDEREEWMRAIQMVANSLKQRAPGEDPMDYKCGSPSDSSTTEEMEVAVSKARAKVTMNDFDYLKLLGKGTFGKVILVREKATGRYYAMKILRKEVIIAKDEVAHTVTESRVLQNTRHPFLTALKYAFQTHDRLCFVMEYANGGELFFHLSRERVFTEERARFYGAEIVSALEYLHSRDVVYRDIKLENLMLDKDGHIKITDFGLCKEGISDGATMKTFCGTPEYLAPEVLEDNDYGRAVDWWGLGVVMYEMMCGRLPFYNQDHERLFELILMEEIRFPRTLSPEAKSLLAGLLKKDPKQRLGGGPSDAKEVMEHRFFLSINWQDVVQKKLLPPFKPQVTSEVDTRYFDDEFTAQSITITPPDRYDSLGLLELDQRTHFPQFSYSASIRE
T12 sequence (P30530 26-894): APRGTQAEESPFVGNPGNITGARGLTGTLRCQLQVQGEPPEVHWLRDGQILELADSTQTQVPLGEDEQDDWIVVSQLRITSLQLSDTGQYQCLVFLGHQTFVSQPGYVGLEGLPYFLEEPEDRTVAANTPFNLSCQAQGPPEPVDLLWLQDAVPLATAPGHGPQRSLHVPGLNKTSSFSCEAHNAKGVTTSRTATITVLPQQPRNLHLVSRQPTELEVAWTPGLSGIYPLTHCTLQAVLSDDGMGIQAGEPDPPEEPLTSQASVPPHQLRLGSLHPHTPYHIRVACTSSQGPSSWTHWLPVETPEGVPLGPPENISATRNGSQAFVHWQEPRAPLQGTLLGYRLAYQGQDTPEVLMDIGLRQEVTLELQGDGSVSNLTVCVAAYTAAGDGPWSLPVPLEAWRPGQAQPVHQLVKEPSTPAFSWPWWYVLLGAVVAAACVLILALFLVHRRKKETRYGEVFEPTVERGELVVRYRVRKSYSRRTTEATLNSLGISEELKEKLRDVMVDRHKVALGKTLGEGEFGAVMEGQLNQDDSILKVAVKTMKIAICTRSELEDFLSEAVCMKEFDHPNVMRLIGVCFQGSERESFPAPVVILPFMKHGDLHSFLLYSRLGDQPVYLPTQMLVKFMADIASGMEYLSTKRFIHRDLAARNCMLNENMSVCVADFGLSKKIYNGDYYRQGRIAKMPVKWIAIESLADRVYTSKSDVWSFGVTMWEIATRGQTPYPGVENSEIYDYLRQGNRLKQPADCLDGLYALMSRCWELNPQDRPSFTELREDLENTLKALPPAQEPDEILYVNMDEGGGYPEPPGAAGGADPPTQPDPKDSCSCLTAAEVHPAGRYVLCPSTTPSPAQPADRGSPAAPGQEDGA
T4 sequence (Q9UM73 19-1620): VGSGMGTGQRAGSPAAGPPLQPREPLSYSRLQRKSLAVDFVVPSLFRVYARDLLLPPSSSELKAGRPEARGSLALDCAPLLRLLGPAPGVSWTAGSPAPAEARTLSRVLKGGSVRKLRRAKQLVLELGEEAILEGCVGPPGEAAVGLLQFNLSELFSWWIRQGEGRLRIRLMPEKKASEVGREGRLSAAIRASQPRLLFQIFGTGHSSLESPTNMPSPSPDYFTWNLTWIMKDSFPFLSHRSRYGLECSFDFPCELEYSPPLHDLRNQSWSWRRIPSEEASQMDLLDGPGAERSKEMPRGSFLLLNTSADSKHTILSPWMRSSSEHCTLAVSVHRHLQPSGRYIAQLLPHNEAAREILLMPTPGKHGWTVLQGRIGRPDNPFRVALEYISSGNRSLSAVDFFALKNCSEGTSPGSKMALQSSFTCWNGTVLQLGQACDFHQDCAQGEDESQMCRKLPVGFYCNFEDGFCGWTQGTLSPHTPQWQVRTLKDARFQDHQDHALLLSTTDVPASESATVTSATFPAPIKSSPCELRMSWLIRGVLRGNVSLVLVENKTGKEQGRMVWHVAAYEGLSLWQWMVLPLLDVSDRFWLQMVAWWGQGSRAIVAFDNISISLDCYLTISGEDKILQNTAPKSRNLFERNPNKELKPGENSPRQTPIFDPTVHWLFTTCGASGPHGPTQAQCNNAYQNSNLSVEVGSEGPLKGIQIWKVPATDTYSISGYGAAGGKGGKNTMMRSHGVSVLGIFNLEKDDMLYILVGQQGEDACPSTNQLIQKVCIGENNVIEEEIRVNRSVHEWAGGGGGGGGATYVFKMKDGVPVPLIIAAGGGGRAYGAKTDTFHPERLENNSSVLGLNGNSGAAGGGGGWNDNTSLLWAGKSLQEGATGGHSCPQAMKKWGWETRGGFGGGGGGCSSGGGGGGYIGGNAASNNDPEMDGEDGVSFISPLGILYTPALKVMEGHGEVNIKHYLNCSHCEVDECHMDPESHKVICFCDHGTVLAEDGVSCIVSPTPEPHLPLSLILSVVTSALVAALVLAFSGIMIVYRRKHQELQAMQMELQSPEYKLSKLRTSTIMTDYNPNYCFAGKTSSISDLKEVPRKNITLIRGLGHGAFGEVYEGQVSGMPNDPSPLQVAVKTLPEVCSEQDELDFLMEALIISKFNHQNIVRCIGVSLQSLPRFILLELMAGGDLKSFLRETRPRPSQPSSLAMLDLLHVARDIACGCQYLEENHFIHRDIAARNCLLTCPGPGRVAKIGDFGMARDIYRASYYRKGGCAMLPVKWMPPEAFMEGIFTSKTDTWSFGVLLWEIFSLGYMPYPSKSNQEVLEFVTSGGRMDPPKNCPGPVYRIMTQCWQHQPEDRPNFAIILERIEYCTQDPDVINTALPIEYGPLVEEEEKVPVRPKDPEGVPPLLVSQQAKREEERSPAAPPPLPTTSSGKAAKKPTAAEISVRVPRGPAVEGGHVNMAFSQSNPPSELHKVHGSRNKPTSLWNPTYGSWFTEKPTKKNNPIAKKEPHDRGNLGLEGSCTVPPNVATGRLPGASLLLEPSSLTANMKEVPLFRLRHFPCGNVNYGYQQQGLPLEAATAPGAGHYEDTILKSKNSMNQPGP
T3 sequence (P51813 whole entry): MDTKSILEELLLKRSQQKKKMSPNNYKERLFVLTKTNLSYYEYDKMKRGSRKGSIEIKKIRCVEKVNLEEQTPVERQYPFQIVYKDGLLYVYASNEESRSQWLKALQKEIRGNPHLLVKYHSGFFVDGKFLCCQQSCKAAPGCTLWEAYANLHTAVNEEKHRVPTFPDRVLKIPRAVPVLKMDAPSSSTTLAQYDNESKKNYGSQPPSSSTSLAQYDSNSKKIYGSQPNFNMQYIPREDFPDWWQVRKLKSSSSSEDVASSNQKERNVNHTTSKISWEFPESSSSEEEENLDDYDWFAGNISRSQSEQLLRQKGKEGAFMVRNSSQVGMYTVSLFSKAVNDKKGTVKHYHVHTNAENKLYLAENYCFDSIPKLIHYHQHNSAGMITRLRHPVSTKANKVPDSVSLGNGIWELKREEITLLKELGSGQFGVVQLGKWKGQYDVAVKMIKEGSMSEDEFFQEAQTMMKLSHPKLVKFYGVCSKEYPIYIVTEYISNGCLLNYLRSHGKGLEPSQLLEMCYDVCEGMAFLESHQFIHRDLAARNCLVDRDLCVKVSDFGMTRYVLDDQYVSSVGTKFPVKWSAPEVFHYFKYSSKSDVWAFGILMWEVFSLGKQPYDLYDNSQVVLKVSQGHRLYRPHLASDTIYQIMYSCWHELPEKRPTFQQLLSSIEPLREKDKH

SMILES: Cc1cnc(N[C@H]2CC[C@H](N)CC2)nc1-c1cnc2ccc(-c3ccccc3)cn12 [CDDD11-8]
- remaining activity at 1 µM [1]: 104%
- remaining activity at 1 µM [2]: 79.1%
- remaining activity at 1 µM [3]: 71.2%
- remaining activity at 1 µM [4]: 68.9%
- remaining activity at 1 µM [5]: 59.4%
- remaining activity at 1 µM [6]: 55.6%
- remaining activity at 1 µM [7]: 65%
- remaining activity at 1 µM [8]: 93.3%
- remaining activity at 1 µM [9]: 99%
- remaining activity at 1 µM [10]: 45.8%
- remaining activity at 1 µM [11]: 98.3%
- remaining activity at 1 µM [12]: 44.4%
- remaining activity at 1 µM [13]: 103%
- remaining activity at 1 µM [14]: 63.9%
- remaining activity at 1 µM [15]: 101%
- remaining activity at 1 µM [16]: 96.7%
- remaining activity at 1 µM [17]: 94%
- remaining activity at 1 µM [18]: 81%
- remaining activity at 1 µM [19]: 102%
- remaining activity at 1 µM [20]: 96.7%
- remaining activity at 1 µM [21]: 95.3%
- remaining activity at 1 µM [22]: 62.4%
- remaining activity at 1 µM [23]: 116%
- remaining activity at 1 µM [24]: 83.5%
- remaining activity at 1 µM [25]: 96.9%
- remaining activity at 1 µM [26]: 91.9%
- remaining activity at 1 µM [27]: 86.7%
- remaining activity at 1 µM [28]: 53.1%
- remaining activity at 1 µM [29]: 99.6%
- remaining activity at 1 µM [30]: 91.8%
